Measurements reported in patent publication US20260317320A1, “C5AR1 ANTAGONISTS AND USES THEREOF” (Vanqua Bio, Inc., priority 2022, published 2026).
pIC50: −log10 of the molar value. Like-named read-outs stand apart in the source and are kept apart here.

Assays:
[1] = molecular target: T1, complement C5a receptor 1 (C5aR1) (Homo sapiens, UniProt P21730); experiment: β-arrestin recruitment via C5aR1 activation in live CHO-K1 cells (PathHunter), antagonist mode; type: cell-based; settings: antagonist mode; recombinant hC5a (EC90) as competing natural agonist; live CHO-K1 cells; read-out: [Antagonist] B-arrestin2 recruitment: Average IC50
T1 construct: β-galactosidase fragment (PathHunter enzyme complementation); host or cells: CHO-K1 (PathHunter CHO-K1 C5aR1 β-arrestin cell line)
T1 sequence (P21730 1-350): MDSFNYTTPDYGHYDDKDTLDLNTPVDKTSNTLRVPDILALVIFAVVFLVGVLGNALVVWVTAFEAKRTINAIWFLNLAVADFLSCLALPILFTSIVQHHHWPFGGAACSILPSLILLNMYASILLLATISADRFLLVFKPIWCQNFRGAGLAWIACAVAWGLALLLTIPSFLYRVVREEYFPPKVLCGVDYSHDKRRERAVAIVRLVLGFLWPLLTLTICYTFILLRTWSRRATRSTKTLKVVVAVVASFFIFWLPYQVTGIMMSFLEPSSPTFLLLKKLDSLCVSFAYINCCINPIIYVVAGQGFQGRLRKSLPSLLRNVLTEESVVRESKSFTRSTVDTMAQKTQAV
In short: (§1)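 β-arrestin recruitment to C5aR1 in CHO-K1 cells is detected by enzyme-fragment complementation. Antagonism is measured against recombinant hC5a at its EC90; agonism is measured with compound alone. Potencies are grouped into IC50 categories.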

[2] = molecular target: T1, complement C5a receptor 1 (C5aR1); experiment: β-arrestin recruitment via C5aR1 activation in live CHO-K1 cells (PathHunter), agonist mode; type: cell-based
In short: as §1

pIC50 [1]	[Agonist] B-arrestin2 recruitment: Average EC50 (nM) ([2]; at 10 μM)	[Agonist] B-arrestin2 recruitment: Average EC50 (nM) [2]	Compound
> 6.30	Non-Active at 10 μM	–	Cc1cccc(F)c1[C@H]1CC[C@H](c2cc3ncc(CC(F)(F)F)nc3n(Cc3ncccc3C(F)(F)F)c2=O)CC1 [compound 229, 7-((1r,4r)-4-(2-Fluoro-6-methylphenyl)cyclohexyl)-3-(2,2,2-trifluoroethyl)-5-((3-(trifluoromethyl)pyridin-2-yl)methyl)pyrido[2,3-b]pyrazin-6(5H)-one]
5.30 to 6.30	–	Non-Active	Cc1cccc(F)c1N1CCC(c2c(C)c3nccnc3n(Cc3nccnc3OCC(F)(F)F)c2=O)CC1 [compound 4, 7-(1-(2-Fluoro-6-methylphenyl)piperidin-4-yl)-8-methyl-5-((3-(2,2,2-trifluoroethoxy)pyrazin-2-yl)methyl)pyrido[2,3-b]pyrazin-6(5H)-one]
5.30 to 6.30	Non-Active at 10 μM	–	Cc1cnc2cc([C@H]3CC[C@H](c4c(C)cccc4F)C3)c(=O)n(Cc3nccnc3C(F)(F)F)c2n1 [197B, 7-((1S,3S)-3-(2-Fluoro-6-methylphenyl)cyclopentyl)-3-methyl-5-((3-(trifluoromethyl)pyrazin-2-yl)methyl)pyrido[2,3-b]pyrazin-6(5H)-one]
> 6.30	–	Non-Active	Cc1ccc2cc([C@H]3CC[C@H](c4c(C)cccc4F)CC3)c(=O)n(Cc3nccnc3C3CC3)c2n1 [compound 257, 1-[(3-Cyclopropyl-2-pyrazinyl)methyl]-7-methyl-3-[(1r,4r)-4-(2-fluoro-6-tolyl)cyclohexyl]-1,8-diaza-2(1H)-naphthalenone]
> 6.30	Non-Active at 10 μM	–	Cc1cccc(F)c1[C@H]1CC[C@H](c2cc3ncc(CC(F)F)nc3n(Cc3ncccc3C(F)(F)F)c2=O)CC1 [compound 231, 3-(2,2-Difluoroethyl)-7-((1r,4r)-4-(2-fluoro-6-methylphenyl)cyclohexyl)-5-((3-(trifluoromethyl)pyridin-2-yl)methyl)pyrido[2,3-b]pyrazin-6(5H)-one]
> 6.30	Non-Active at 10 μM	–	Cc1cnc2cc(N3CCN(c4c(C)cccc4F)CC3)c(=O)n(Cc3ncccc3C(F)F)c2n1 [compound 140, 5-((3-(Difluoromethyl)pyridin-2-yl)methyl)-7-(4-(2-fluoro-6-methylphenyl)piperazin-1-yl)-3-methylpyrido[2,3-b]pyrazin-6(5H)-one]
5.30 to 6.30	–	Non-Active	Cc1cccc(F)c1N1CC(c2cc3nccnc3n(Cc3ncccc3C(F)(F)F)c2=O)C1 [compound 48, 7-(1-(2-Fluoro-6-methylphenyl)azetidin-3-yl)-5-((3-(trifluoromethyl)pyridin-2-yl)methyl)pyrido[2,3-b]pyrazin-6(5H)-one]
> 6.30	–	Non-Active	Cc1cccc(F)c1N1CCC(c2c(C)c3nccnc3n(Cc3ncccc3C(F)(F)F)c2=O)CC1 [compound 57, 7-(1-(2-Fluoro-6-methylphenyl)piperidin-4-yl)-8-methyl-5-((3-(trifluoromethyl)pyridin-2-yl)methyl)pyrido[2,3-b]pyrazin-6(5H)-one]
< 4.00	–	Non-Active	COc1cnc2cc(C3CCN(c4c(C)cccc4F)CC3)c(=O)n(Cc3ncccc3C(F)(F)F)c2n1 [compound 54, 7-(1-(2-Fluoro-6-methylphenyl)piperidin-4-yl)-3-methoxy-5-((3-(trifluoromethyl)pyridin-2-yl)methyl)pyrido[2,3-b]pyrazin-6(5H)-one]
> 6.30	Non-Active at 10 μM	–	Cc1cnc2cc([C@H]3CC[C@@H](c4c(C)cccc4F)C3)c(=O)n(Cc3nccnc3C(F)(F)F)c2n1 [197A, 7-((1S,3R)-3-(2-Fluoro-6-methylphenyl)cyclopentyl)-3-methyl-5-((3-(trifluoromethyl)pyrazin-2-yl)methyl)pyrido[2,3-b]pyrazin-6(5H)-one]
5.30 to 6.30	Non-Active at 10 μM	–	Cc1cnc2cc([C@@H]3CC[C@@H](c4c(C)cccc4F)C3)c(=O)n(Cc3ncccc3C(F)(F)F)c2n1 [171D, 7-((1R,3R)-3-(2-Fluoro-6-methylphenyl)cyclopentyl)-3-methyl-5-((3-(trifluoromethyl)pyridin-2-yl)methyl)pyrido[2,3-b]pyrazin-6(5H)-one]
4.00 to 5.30	Non-Active at 10 μM	–	COc1cccnc1Cn1c(=O)c([C@H]2CC[C@H](c3c(C)cccc3F)CC2)cc2nc(C(F)(F)F)cnc21 [compound 214, 7-((1r,4r)-4-(2-Fluoro-6-methylphenyl)cyclohexyl)-5-((3-methoxypyridin-2-yl)methyl)-2-(trifluoromethyl)pyrido[2,3-b]pyrazin-6(5H)-one]
> 6.30	–	Non-Active	Cc1cnc2cc([C@@H]3CC[C@@H](c4c(C)cccc4F)C3)c(=O)n(Cc3nccnc3C(F)(F)F)c2n1 [197D, 7-((1R,3R)-3-(2-Fluoro-6-methylphenyl)cyclopentyl)-3-methyl-5-((3-(trifluoromethyl)pyrazin-2-yl)methyl)pyrido[2,3-b]pyrazin-6(5H)-one]
> 6.30	–	Non-Active	Cc1cnc2cc([C@H]3CC[C@H](c4c(C)cncc4F)CC3)c(=O)n(Cc3ncccc3C(F)(F)F)c2n1 [compound 237, 7-((1r,4r)-4-(3-Fluoro-5-methylpyridin-4-yl)cyclohexyl)-3-methyl-5-((3-(trifluoromethyl)pyridin-2-yl)methyl)pyrido[2,3-b]pyrazin-6(5H)-one]
< 4.00	–	Non-Active	Cc1cccc(F)c1N1CCC(c2cc3nccnc3n(Cc3ccc(C(F)(F)F)cn3)c2=O)CC1 [compound 15, 7-(1-(2-Fluoro-6-methylphenyl)piperidin-4-yl)-5-((5-(trifluoromethyl)pyridin-2-yl)methyl)pyrido[2,3-b]pyrazin-6(5H)-one]
< 4.00	–	Non-Active	Cc1cccc(F)c1N1CCC(c2cc3nccnc3n(Cc3ccc(C(F)(F)F)nc3)c2=O)CC1 [compound 14, 7-(1-(2-Fluoro-6-methylphenyl)piperidin-4-yl)-5-((6-(trifluoromethyl)pyridin-3-yl)methyl)pyrido[2,3-b]pyrazin-6(5H)-one]
4.00 to 5.30	–	Non-Active	Cc1cccc(F)c1N1CCC(c2cc3nccnc3n([C@@H]3CCCc4ccccc43)c2=O)CC1 [53a, (R)-7-(1-(2-Fluoro-6-methylphenyl)piperidin-4-yl)-5-(1,2,3,4-tetrahydronaphthalen-1-yl)pyrido[2,3-b]pyrazin-6(5H)-one]
> 6.30	–	Non-Active	COc1nccc(C)c1[C@H]1CC[C@H](c2cc3ccc(C)nc3n(Cc3ncccc3CC(F)(F)F)c2=O)CC1 [compound 260, 7-Methyl-3-[(1r,4r)-4-(2-methoxy-4-methyl-3-pyridyl)cyclohexyl]-1-{[3-(2,2,2-trifluoroethyl)-2-pyridyl]methyl}-1,8-diaza-2(1H)-naphthalenone]
